Test results from US10770169B2, “Method of providing a treatment to a subject based on a dynamic pathway map” (THE REGENTS OF THE UNIVERSITY OF CALIFORNIA, priority 2010, dated 2020).

Legend:
[1] = test system: panel of 55 breast cancer cell lines; assay: Cell growth inhibition assay (Cell Titer Glo, 72 h, 9 doses; GI50, TGI, LC50); format: cell-based, human; conditions: value is the negative log10 of mol/L
[2] = test system: luminal, basal, claudin-low and ERBB2AMP breast cancer cell lines; assay: Associations of clinically relevant subtypes and response (non-parametric ANOVA or t-test on GI50 ranks); format: cell-based, human; conditions: Table 6; most sensitive subtype, FDR p<0.20
Method in brief: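 Significance was set at FDR p<0.20 after combining p-values across three test sets. Subtype–response associations came from rank-based non-parametric ANOVA or t-tests on GI50. For three-class comparisons, post-hoc tests of each group against the rest identified the most sensitive group, with FDR correction.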

SMILES: C=CCNC1=C2C[C@@H](C)C[C@H](OC)[C@H](O)[C@@H](C)/C=C(\C)[C@H](OC(N)=O)[C@@H](OC)/C=C\C=C(/C)C(=O)NC(=CC1=O)C2=O [17-AAG]
- GI50 ([1]; 600MPE cell line, censored GI50 values): 6.87
- GI50 ([1]; AU565 cell line, censored GI50 values): 7.25
- GI50 ([1]; BT474 cell line, censored GI50 values): 7.69
- GI50 ([1]; BT483 cell line, censored GI50 values): 6.65
- GI50 ([1]; BT549 cell line, censored GI50 values): 7.47
- GI50 ([1]; CAMA1 cell line, censored GI50 values): 6.57
- GI50 ([1]; HCC38 cell line, censored GI50 values): 7.23
- GI50 ([1]; HCC70 cell line, censored GI50 values): 6.62
- GI50 ([1]; HCC202 cell line, censored GI50 values): 8.39
- GI50 ([1]; HCC1143 cell line, censored GI50 values): 6.86
- GI50 ([1]; HCC1187 cell line, censored GI50 values): 5.29
- GI50 ([1]; HCC1395 cell line, censored GI50 values): 6.54
- GI50 ([1]; HCC1419 cell line, censored GI50 values): 7.35
- GI50 ([1]; HCC1428 cell line, censored GI50 values): 7.70
- GI50 ([1]; HCC1500 cell line, censored GI50 values): 6.91
- GI50 ([1]; HCC1806 cell line, censored GI50 values): 7.04
- GI50 ([1]; HCC1937 cell line, censored GI50 values): 6.87
- GI50 ([1]; HCC1954 cell line, censored GI50 values): 7.49
- GI50 ([1]; HCC2185 cell line, censored GI50 values): 6.93
- GI50 ([1]; HCC3153 cell line, censored GI50 values): 6.81
- GI50 ([1]; LY2 cell line, censored GI50 values): 6.97
- GI50 ([1]; MCF7 cell line, censored GI50 values): 6.25
- GI50 ([1]; MDAMB134VI cell line, censored GI50 values): 7.46
- GI50 ([1]; MDAMB175VII cell line, censored GI50 values): 7.54
- GI50 ([1]; MDAMB231 cell line, censored GI50 values): 6.11
- GI50 ([1]; MDAMB361 cell line, censored GI50 values): 7.24
- GI50 ([1]; MDAMB415 cell line, censored GI50 values): 7.30
- GI50 ([1]; MDAMB436 cell line, censored GI50 values): 5.96
- GI50 ([1]; MDAMB453 cell line, censored GI50 values): 7.14
- GI50 ([1]; MDAMB468 cell line, censored GI50 values): 5.62
- GI50 ([1]; SKBR3 cell line, censored GI50 values): 7.50
- GI50 ([1]; SUM44PE cell line, censored GI50 values): 8.84
- GI50 ([1]; SUM52PE cell line, censored GI50 values): 7.46
- GI50 ([1]; SUM149PT cell line, censored GI50 values): 7.00
- GI50 ([1]; SUM159PT cell line, censored GI50 values): 7.46
- GI50 ([1]; SUM185PE cell line, censored GI50 values): 7.46
- GI50 ([1]; SUM1315MO2 cell line, censored GI50 values): 7.66
- GI50 ([1]; UACC893 cell line, censored GI50 values): 7.90
- GI50 ([1]; ZR75B cell line, censored GI50 values): 7.14
- GI50 ([1]; ZR751 cell line, censored GI50 values): 6.56
- GI50 ([1]; cell line 600MPE): 6.87
- GI50 ([1]; cell line AU565): 7.25
- GI50 ([1]; cell line BT474): 7.69
- GI50 ([1]; cell line BT483): 6.65
- GI50 ([1]; cell line BT549): 7.47
- GI50 ([1]; cell line CAMA1): 6.57
- GI50 ([1]; cell line HCC38): 7.23
- GI50 ([1]; cell line HCC70): 6.62
- GI50 ([1]; cell line HCC202): 8.39
- GI50 ([1]; cell line HCC1143): 6.86
- GI50 ([1]; cell line HCC1187): 5.29
- GI50 ([1]; cell line HCC1395): 6.54
- GI50 ([1]; cell line HCC1419): 7.35
- GI50 ([1]; cell line HCC1428): 7.70
- GI50 ([1]; cell line HCC1500): 6.91
- GI50 ([1]; cell line HCC1806): 7.04
- GI50 ([1]; cell line HCC1937): 6.87
- GI50 ([1]; cell line HCC1954): 7.49
- GI50 ([1]; cell line HCC2185): 6.93
- GI50 ([1]; cell line HCC3153): 6.81
- GI50 ([1]; cell line LY2): 6.97
- GI50 ([1]; cell line MCF7): 6.25
- GI50 ([1]; cell line MDAMB134V): 7.46
- GI50 ([1]; cell line MDAMB175V): 7.54
- GI50 ([1]; cell line MDAMB231): 6.11
- GI50 ([1]; cell line MDAMB361): 7.24
- GI50 ([1]; cell line MDAMB415): 7.30
- GI50 ([1]; cell line MDAMB436): 5.96
- GI50 ([1]; cell line MDAMB453): 7.14
- GI50 ([1]; cell line MDAMB468): 5.62
- GI50 ([1]; cell line SKBR3): 7.50
- GI50 ([1]; cell line SUM44PE): 8.84
- GI50 ([1]; cell line SUM52PE): 7.46
- GI50 ([1]; cell line SUM149PT): 7.00
- GI50 ([1]; cell line SUM159PT): 7.46
- GI50 ([1]; cell line SUM185PE): 7.46
- GI50 ([1]; cell line SUM1315MO): 7.66
- GI50 ([1]; cell line UACC893): 7.90
- GI50 ([1]; cell line ZR75B): 7.14
- GI50 ([1]; cell line ZR751): 6.56
- Subtype specificity [2]: Luminal/ERBB2AMP
